This passage reports LC100 results from ChEMBL document CHEMBL1147393, “Two new modified trichothecenes from Fusarium sporotrichioides” (J Nat Prod, 1993).

Structures are written as SMILES.

The series can be described thus: Cytotoxicity against syrian golden hamsters BHK21 cells. The series is classed as cell-based, Mesocricetus auratus. Conditions: hamster, bhk-21.

Compound `CC(=O)O[C@]12CO[C@@H]3C=C(C)CC[C@]3(C)[C@@]1(C)C[C@@H](O)C2` registered an LC100 of 1000 ng/mL.

The compound `CC1=C[C@H]2OC[C@]3(O)C[C@H](O)C[C@]3(C)[C@@]2(C)CC1` came in with an LC100 of 1000 ng/mL.
